Test results reported in PubChem BioAssay AID2060908 (Molecular Pharmacology Branch, DTP, NCI, 2025).

System: 186277-243-T-J2-PDC complex spheroids, viability
Experiment: Anticancer human tumor 186277-243-T-J2-PDC patient-derived colon adenocarcinoma cell line growth inhibition [RAS]
Settings: for IC50: curve of first compound; for viability, T/C: stronger effect = lower value
Text: RAS pathway inhibitors in Combinations in Complex Spheroids
A high-throughput screen of multi-cell type tumor spheroids was designed to identify active combinations of RAS pathway inhibitors and targeted small molecules. Complex spheroids include a stromal component modeled by human endothelial cells (HUVEC) and fibroblasts modeled by human mesenchymal stem cells (MSCs). The concentration ranges selected for each drug and investigational agent were based upon clinically achievable concentrations if the clinical Cmax of the agent was known.
Compounds. The drugs and investigational agents: abemaciclib (NSC768073), cobimetinib (NSC768068), divarasib (GDC6063, NSC841802), docetaxel (NSC628503), GDC-1971 (RLY-1971, NSC841576), gemcitabine (NSC613327), inavolisib (NSC800729), ipatasertib (NSC767898), KB-0742 (NSC834161), MRTX-1133 (NSC836407), osimertinib (NSC779217), RMC-4630 (NSC839698), RMC-6236 (NSC851965), RMC-6291 (NSC852671), Ro-3306 (NSC812927), sapanisertib (NSC764658), SN-38 (NSC673596), staurosporine (NSC755774), SY5609 (NSC837396), and tovorafenib (DAY101, NSC766906), were obtained from the National Cancer Institute (NCI) Developmental Therapeutics Program Chemical Repository. The FDA-approved anticancer drug set is available from the NCI Developmental Therapeutics Program. […] The stock solutions were prepared in dimethyl sulfoxide (DMSO, Sigma-Aldrich, St. Louis, MO, cat. D2650) at 800-fold the tested concentration and stored at -70 degrees C prior to their use. All drugs and investigational agents were tested over a range starting from a high concentration at or near the clinical Cmax and decreasing in half-log increments. If the clinical Cmax for an agent had not been determined, the highest concentration tested was 10 microM.
Cell Culture. All cells were maintained in an incubator at 37 degrees C and 5% CO2 with 95% humidity. The PDC lines were cultured according to standard operating procedures established by the NCI PDMR. All PDCs were thawed and cultured in Matrigel-coated flasks prepared with a working solution of 1X Ham's F-12 nutrient mix, without supplementation (Invitrogen, Waltham, MA, cat. 11765054), 100 U/mL penicillin-streptomycin (Invitrogen, cat. 15140122), and 2.5% Matrigel (Corning Inc., Corning, NY, cat. 354248) for the first three passages. The 362531-283-R-J2-PDC and 782815-120-R-J1-PDC lines were cultured in 6C/Colon 1B media, which includes advanced DMEM/F-12 (Thermo Fisher Scientific, cat. 12634028), 10 mM HEPES (Thermo Fisher Scientific, cat. 15630080), 1X GlutaMAX supplement (Thermo Fisher Scientific, cat. 35050061), 0.1 mg/mL primocin (InvivoGen, San Diego, CA, cat. ant-pm-2), 10% defined fetal bovine serum, heat inactivated (HyClone Laboratories Inc., Logan, UT, cat. SH30070.03HI), 50% L-WRN conditioned media (ATCC, cat. CRL-3276), 1.25 mM N-Acetyl-L-cysteine (Sigma-Aldrich, cat. A9165), 10 mM nicotinamide (Sigma-Aldrich, cat. N0636), 1X B-27 supplement (Thermo Fisher Scientific, cat. 17504044), 1X N-2 supplement (Thermo Fisher Scientific, cat. 17502048), 50 ng/mL human EGF (Thermo Fisher Scientific, cat. PHG0311), and 10 microM Y-27632 dihydrochloride (Tocris Bioscience, cat. 1254). The K12877-001-R-J1-PDC line was cultured in 6I media, which includes all 6C/Colon 1B media plus 10 ng/mL human FGF-10 (PeproTech, cat. 100-26), 1 ng/mL human FGF-2 (PeproTech, cat. 100-18B), 1 µM prostaglandin E2 (Tocris Bioscience, cat. 2296), […] hydrocortisone (Sigma-Aldrich, cat. H4001), and […] bovine insulin (Sigma-Aldrich, cat. I6634). The K86415-001-R-J1-PDC line was cultured in 6D media, which includes all 6C/Colon 1B media components minus the L-WRN conditioned media. The 485176-168-R4-J1-PDC was cultured in PANC media, which includes all 6C/Colon 1B media plus 100 ng/mL human FGF-10 (PeproTech, cat. 100-26), 500 nM SB-431542 (Selleckchem, cat. S1067), and 10 nM gastrin (Tocris Bioscience, cat. 3006). […]

[1] = second compound 0.0316 µM, first compound 0.0316 µM
[2] = second compound 0.0316 µM, first compound 0.1 µM
[3] = second compound 0.0316 µM, first compound 0.316 µM
[4] = second compound 0.0316 µM, first compound 1 µM
[5] = second compound 0.1 µM, first compound 0.0316 µM
[6] = second compound 0.1 µM, first compound 0.1 µM
[7] = second compound 0.1 µM, first compound 0.316 µM
[8] = second compound 0.1 µM, first compound 1 µM
[9] = second compound 0.316 µM, first compound 0.0316 µM
[10] = second compound 0.316 µM, first compound 0.1 µM
[11] = second compound 0.316 µM, first compound 0.316 µM
[12] = second compound 0.316 µM, first compound 1 µM
[13] = second compound 1 µM, first compound 0.0316 µM
[14] = second compound 1 µM, first compound 0.1 µM
[15] = second compound 1 µM, first compound 0.316 µM
[16] = second compound 1 µM, first compound 1 µM
[17] = second compound 3.16 µM, first compound 0.0316 µM
[18] = second compound 3.16 µM, first compound 0.1 µM
[19] = second compound 3.16 µM, first compound 0.316 µM
[20] = second compound 3.16 µM, first compound 1 µM
[21] = second compound 10 µM, first compound 0.0316 µM
[22] = second compound 10 µM, first compound 0.1 µM
[23] = second compound 10 µM, first compound 0.316 µM
[24] = second compound 10 µM, first compound 1 µM
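Also: spheroids exposed to compounds for 7 days before viability read.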

Molecule `CCN1CCN(Cc2ccc(Nc3ncc(F)c(-c4cc(F)c5nc(C)n(C(C)C)c5c4)n3)nc2)CC1` + C#Cc1c(F)ccc2cc(O)cc(-c3ncc4c(N5CC6CCC(C5)N6)nc(OCC56CCCN5CC(F)C6)nc4c3F)c12 has an IC50 (second compound 0.0316 µM) of 281 nM, an IC50 (second compound 0.1 µM) of 14.9 nM and an IC50 (second compound 0.316 µM) of less than 3.16 nM. For the same molecule, the IC50 (second compound 1 µM) was less than 3.16 nM, the IC50 (second compound 3.16 µM) was less than 3.16 nM and the IC50 (second compound 10 µM) was less than 3.16 nM. It also gave a viability, T/C (second compound 0.0316 µM, first compound 0.00316 µM) of 84.9%, a viability, T/C (second compound 0.0316 µM, first compound 0.01 µM) of 69.9% and a viability, T/C [1] of 66.7%. For the same molecule, the viability, T/C [2] was 67.2%, the viability, T/C [3] was 49.2% and the viability, T/C [4] was 22%. For the same molecule, the viability, T/C (second compound 0.1 µM, first compound 0.00316 µM) was 65%, the viability, T/C (second compound 0.1 µM, first compound 0.01 µM) was 55.3% and the viability, T/C [5] was 41.7%. It also gave a viability, T/C [6] of 31.1%, a viability, T/C [7] of 24% and a viability, T/C [8] of 16.7%. The viability, T/C (second compound 0.316 µM, first compound 0.00316 µM) was 28.9%, the viability, T/C (second compound 0.316 µM, first compound 0.01 µM) was 25.2% and the viability, T/C [9] was 21.7%. It also gave a viability, T/C [10] of 16.6%, a viability, T/C [11] of 16.9% and a viability, T/C [12] of 13.1%. For the same molecule, the viability, T/C (second compound 1 µM, first compound 0.00316 µM) was 13.1%, the viability, T/C (second compound 1 µM, first compound 0.01 µM) was 16.7% and the viability, T/C [13] was 14.2%. For the same molecule, the viability, T/C [14] was 11.6%, the viability, T/C [15] was 15.6% and the viability, T/C [16] was 11.4%. The viability, T/C (second compound 3.16 µM, first compound 0.00316 µM) was 12.8%, the viability, T/C (second compound 3.16 µM, first compound 0.01 µM) was 10.5% and the viability, T/C [17] was 9.68%. The viability, T/C [18] was 10.6%, the viability, T/C [19] was 11.5% and the viability, T/C [20] was 10.6%. The viability, T/C (second compound 10 µM, first compound 0.00316 µM) was 10.4%, the viability, T/C (second compound 10 µM, first compound 0.01 µM) was 8.81% and the viability, T/C [21] was 10.7%. For the same molecule, the viability, T/C [22] was 9.4%, the viability, T/C [23] was 9.61% and the viability, T/C [24] was 7.42%.
In the case of `C[C@@H](NC(=O)c1ncnc(N)c1Cl)c1ncc(C(=O)Nc2cc(C(F)(F)F)c(Cl)cn2)s1` + C#Cc1c(F)ccc2cc(O)cc(-c3ncc4c(N5CC6CCC(C5)N6)nc(OCC56CCCN5CC(F)C6)nc4c3F)c12, the IC50 (second compound 0.0316 µM) is reported as 9760 nM, the IC50 (second compound 0.1 µM) is reported as 4170 nM and the IC50 (second compound 0.316 µM) is reported as less than 31.6 nM. For the same molecule, the IC50 (second compound 1 µM) was less than 31.6 nM, the IC50 (second compound 3.16 µM) was less than 31.6 nM and the IC50 (second compound 10 µM) was less than 31.6 nM. The viability, T/C [1] was 104%, the viability, T/C [2] was 98.5% and the viability, T/C [3] was 90.6%. The viability, T/C [4] was 91.7%, the viability, T/C (second compound 0.0316 µM, first compound 3.16 µM) was 76.1% and the viability, T/C (second compound 0.0316 µM, first compound 10 µM) was 48.8%. The viability, T/C [5] was 77.2%, the viability, T/C [6] was 69.5% and the viability, T/C [7] was 62.1%. For the same molecule, the viability, T/C [8] was 61.3%, the viability, T/C (second compound 0.1 µM, first compound 3.16 µM) was 60.8% and the viability, T/C (second compound 0.1 µM, first compound 10 µM) was 26.7%. For the same molecule, the viability, T/C [9] was 36.3%, the viability, T/C [10] was 49.8% and the viability, T/C [11] was 38.5%. For the same molecule, the viability, T/C [12] was 36%, the viability, T/C (second compound 0.316 µM, first compound 3.16 µM) was 23.7% and the viability, T/C (second compound 0.316 µM, first compound 10 µM) was 14.4%. For the same molecule, the viability, T/C [13] was 20.9%, the viability, T/C [14] was 23.9% and the viability, T/C [15] was 22.7%. The viability, T/C [16] was 22.3%, the viability, T/C (second compound 1 µM, first compound 3.16 µM) was 18.8% and the viability, T/C (second compound 1 µM, first compound 10 µM) was 11.1%. The viability, T/C [17] was 15.4%, the viability, T/C [18] was 17.6% and the viability, T/C [19] was 15.1%. The viability, T/C [20] was 15.4%, the viability, T/C (second compound 3.16 µM, first compound 3.16 µM) was 10.9% and the viability, T/C (second compound 3.16 µM, first compound 10 µM) was 8.51%. For the same molecule, the viability, T/C [21] was 9.89%, the viability, T/C [22] was 10.8% and the viability, T/C [23] was 14%. The viability, T/C [24] was 12.8%, the viability, T/C (second compound 10 µM, first compound 3.16 µM) was 8% and the viability, T/C (second compound 10 µM, first compound 10 µM) was 8.5%.
